# Laboratory results: PubChem BioAssay AID463206 (Broad Institute, 2010)
# Activity calls are given as the source filed them.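 The calls were made as follows: active = caspase luminescence falls with dose and the half-maximal concentration AC50 from the fitted curve is at or below a set limit; inconclusive = flat fit at 30 to 70% signal loss, or invalid fit; inactive = AC50 above the limit, or signal rises instead.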
# System: INS-1E cytokine-induced caspase-3/7, Caspase-Glo luminescence, 48 h
# Test: suppression of cytokine-driven beta-cell apoptosis – INS-1E rat cells, luminescence, orthogonal assay for beta-cell apoptosis protection project, dose response (AID 463206)
row,SMILES,AC50
1,Cc1nc2c3cc(F)ccc3n(Cc3ccccc3)c2s1,> 26 µM (inactive)
2,O=C(Nc1nc(-c2ccccn2)cs1)c1ccc(Cl)s1,> 26 µM (inactive)
3,COCCn1c(SCC(=O)/C=C2\N(C)c3ccccc3C2(C)C)nnc1-c1ccncc1,> 26 µM (inactive)
4,CCOC(=O)c1nc(NNC(=O)c2ccc([N+](=O)[O-])cc2)sc1C,> 26 µM (inactive)
5,CC(=O)c1c(C)[nH]c(C(=O)OCc2cccc(Cl)c2)c1C,> 12 µM (inactive)
6,Cc1ccc(S(=O)(=O)N2CCN(c3ncnc4sccc34)CC2)cc1,> 26 µM (inactive)
7,COc1ccc2nc(C)cc(SCC(=O)N/N=C/c3ccc(O)cc3O)c2c1,> 26 µM (inactive)
8,COc1cccc(/C=N/Nc2ccnc(=O)[nH]2)c1O,> 26 µM (inactive)
9,COCc1ccc(O)c2ncccc12,> 26 µM (inactive)
10,Cc1cc([N+](=O)[O-])nn1Cc1ccc(C(=O)N/N=C/c2ccc(O)cc2O)cc1,> 26 µM (inactive)
11,COc1ccc(CNCCC(c2ccc(OC(C)C)cc2)c2ccccc2OC)cc1 (configuration not stated),> 26 µM (inactive)
12,OCc1ccc(O)c2ncccc12,> 26 µM (inactive)
13,FC(F)(F)c1ccccc1NC(=S)N1CCN(Cc2ccc3c(c2)OCO3)CC1,> 26 µM (inactive)
14,COc1ccc(-[n+]2c(C)cc(/C=C3\Sc4ccccc4N3C)cc2C)cc1,> 26 µM (inactive)
15,CCn1c(=O)c([N+](=O)[O-])c(Cl)c2ccccc21,> 26 µM (inactive)
16,CCC1CCCCN1C(=O)c1cc(COc2ccc3ncccc3c2)on1 (configuration not stated),> 26 µM (inactive)
17,CCC(=O)NC(c1cc(Cl)c2cccnc2c1O)C1CC1 (configuration not stated),> 26 µM (inactive)
18,CCOc1cc(-c2sc(Nc3cc(C)ccc3OC)n[n+]2-c2ccccc2)ccc1OC,> 26 µM (inactive)
19,CC1(C)CC(N2CCN(c3ccccc3)CC2)=CC(=[N+]2CCCC2)C1,> 26 µM (inactive)
20,NC(N)=N/N=C/c1cn(-c2ccccc2)nc1-c1cccs1,> 26 µM (inactive)
21,CC[n+]1ccc(/C=C/c2c[nH]c3ccccc23)cc1,> 26 µM (inactive)
22,CCC1=NN(C(=O)c2ccccc2O)C(O)(c2ccccc2)C1 (configuration not stated),> 26 µM (inactive)
23,Cn1c(SCC(=O)N/N=C/c2ccc([N+](=O)[O-])s2)nnc1-c1ccccc1,> 26 µM (inactive)
24,CC(=O)c1cn(CCOc2cc(C)ccc2C)c2ccccc12,> 26 µM (inactive)

row,SMILES,AC50
1,Cc1ccc(NC(=O)Cn2c(O)c(N=NC(=O)c3cc4ccccc4cc3O)c3ccccc32)cc1,> 26 µM (inactive)
2,CC(=O)NC(c1ccccc1)c1cc(Cl)c2cccnc2c1O (configuration not stated),> 26 µM (inactive)
3,C#CCn1c(=NC(=O)c2ccc(S(=O)(=O)N3CCc4ccccc4C3)cc2)sc2cc(S(N)(=O)=O)ccc21,> 26 µM (inactive)
4,CCC[C@@H](CN1CCC[C@H]1CN1C(N)=NC[C@@H]1Cc1ccccc1)N1C[C@@H]([C@H](C)CC)N(CCCC2CCCC2)C1=N,> 26 µM (inactive)
5,CCOC(=O)c1c(CSc2nc(C)cc(C)c2C#N)n(C)c2cc(Br)c(OC(C)=O)cc12,> 26 µM (inactive)
6,COc1ccccc1C(NC(C)=O)c1cc(Cl)c2cccnc2c1O (configuration not stated),> 26 µM (inactive)
7,N#Cc1ccc(-c2csc(NNC(=O)c3ccccc3)n2)cc1,> 26 µM (inactive)
8,Cc1cccnc1CCNCc1c(C(=O)N2C[C@@H](C)O[C@@H](C)C2)nc2ccc(Cl)cn12,> 26 µM (inactive)
9,COc1ccc(N/N=C/c2c(C(=O)O)ccc3ccccc23)cc1,> 26 µM (inactive)
10,CN(C1=C(NC(=O)c2ccc(Cl)cc2)C(=O)c2ccccc2C1=O)c1ccccc1,> 26 µM (inactive)
11,CCOc1ccc(-n2c(-c3ccccc3)c[n+]3c2CCCCC3)cc1,> 26 µM (inactive)
12,COc1cc(/C=N/NC(=O)c2cccnc2)ccc1OC(=O)c1cc(OC)c(OC)c(OC)c1,> 26 µM (inactive)
13,NC(=O)c1ccc(N2CCN(S(=O)(=O)c3cccs3)CC2)c([N+](=O)[O-])c1,> 26 µM (inactive)
14,c1ccc(-c2nnc(CSc3ccc4c(c3)OCCO4)o2)cc1,> 26 µM (inactive)
15,O=C(COc1ccccc1-c1ccccc1)N/N=C/c1ccc2ccccc2c1,> 12 µM (inactive)
16,CCCCCCCC[n+]1cccc2c3ccccc3ccc21,> 26 µM (inactive)
17,CC[C@]1(c2ccccc2OC)ON(c2ccccc2C(F)(F)F)C1=O,> 26 µM (inactive)
18,C/C(=N\NC(=O)Cc1ccc(Cl)cc1)c1ccccn1,> 26 µM (inactive)
19,COc1ccc(C)cc1Nc1n[n+](-c2ccccc2)c(-c2c(OC)ccc3ccccc23)s1,> 26 µM (inactive)
20,Cc1ccnc(NC(=O)c2ccc([N+](=O)[O-])s2)c1,> 26 µM (inactive)
21,Cc1cccc2nc(CSc3nc4[nH]ncc4c(=O)n3-c3cccc(Cl)c3)cc(=O)n12,> 26 µM (inactive)
22,O=[N+]([O-])c1cc(C(F)(F)F)ccc1NCCCCNS(=O)(=O)c1ccc(Cl)cc1,> 26 µM (inactive)
23,C=C1[C@@H](O)[C@@H]2O[C@]3(CC[C@H](/C=C/[C@@H](C)[C@@H]4CC(C)=CC5(O[C@H](C[C@@](C)(O)C(=O)OC)CC[C@H]5O)O4)O3)CC[C@H]2O[C@@H]1[C@@H](O)C[C@H](C)[C@H]1OC2(CCCCO2)CC[C@H]1C (some centres not stated),> 26 µM (inactive)
